Source: EPA's ToxValDB 9.5 (doi:10.2903/j.efsa.2016.4605)

Columns and labels:
Daphnia magna = settings: chronic/long-term
Folsomia candida = settings: chronic/long-term; reproduction
Hypoaspis aculeifer = settings: chronic/long-term; reproduction
Mus musculus = settings: chronic; histopathology: neoplastic
Oncorhynchus mykiss = settings: for LC50: acute, mortality; for NOEC: chronic/long-term
Tagia sp. = settings: chronic/long-term; reproduction
Apis mellifera = settings: acute, mortality
Rattus norvegicus = settings: for LD50: acute, oral, mortality
Typhlodromus pyri = experiment: LR50; higher = less toxic; settings: not reported; mortality
[1] = duration: 21 days, reproduction

SMILES | NOEC (Daphnia magna; [1]) | NOEC (Folsomia candida) | NOEC (Hypoaspis aculeifer) | NOAEL (Mus musculus) | LC50 (Oncorhynchus mykiss; duration: 96 hours) | NOEC (Tagia sp.) | LD50 (Rattus norvegicus) | also measured
CC1CNC(=O)N1 (centres undefined) [4-Methyl-2-imidazolidinone] | 100 mg/L | 90 mg/kg | ≥ 100 mg/kg | 8 mg/kg-day | > 100 µg/mL | ≥ 1000 mg/kg | – | NOEC (Oncorhynchus mykiss; duration: 63 days, growth): 2 mg/L
CC(CNC(=S)[S-])NC(=S)[S-].[Zn+2] (centres undefined) [Propineb] | 0.015 mg/L | 39.1 mg/kg | 39.1 mg/kg | – | 0.329 µg/mL | 38.7 mg/kg | > 2000 mg/kg-day | LD50 (Apis mellifera; dermal): > 100 µg/piece; LD50 (Apis mellifera; oral, unspecified): > 100 µg/piece; LD50 (Coturnix japonica; acute, oral, mortality): > 5000 mg/kg-day; NOAEL (Coturnix japonica; chronic): 64.7 mg/kg-day; NOEC (Daphnia magna; duration: 35 days, other): 0.48 mg/L; NOEC (Oncorhynchus mykiss; duration: 28 days, other): > 0.6 mg/L; NOEC (Oncorhynchus mykiss; growth): 0.0823 mg/L; NOAEL (Rattus norvegicus; chronic, M, organ weight): 2.5 mg/kg-day; NOAEL (Rattus norvegicus; developmental, development): 3 mg/kg-day; NOAEL (Rattus norvegicus; reproduction developmental, body weight): 3 mg/kg-day; NOAEL (Rattus norvegicus; subchronic, F, body weight): 9.36 mg/kg-day; LR50 (Typhlodromus pyri): 5.6 g/ha
CC1CN2C(=S)SSC2=N1 (centres undefined) [6-Methyl-5,6-dihydroimidazo[2,1-C][1,2,4]dithiazole-3-thione] | – | – | – | – | – | – | – | NOAEL (Rattus norvegicus; short-term, duration: 28 days, neurology): 0.466 mg/kg-day
CC1CNC(=S)N1 (centres undefined) [4-Methylimidazolidine-2-thione] | 3.2 mg/L | 9 mg/kg | ≥ 100 mg/kg | 0.16 mg/kg-day | – | 178 mg/kg | 795 mg/kg-day | LC50 (Oncorhynchus mykiss): > 100 µg/mL; NOEC (Oncorhynchus mykiss; duration: 28 days, growth): 102 mg/L
